These results are taken from patent publication US9266870B2 (TAISHO PHARMACEUTICAL CO., LTD., priority 2012, dated 2016).

The IC50 is the concentration needed to halve the response being measured.

Like-named read-outs stand apart in the source and are kept apart here.

For assay [1], the target named is human orexin-1 receptor (hOX1R) (Homo sapiens (Human), UniProt O43613). Kind of assay: Measurement of orexin antagonistic activity (intracellular Ca2+ fluorescence, FDSS), hOX1R. The assay is classed as cell-based. To be noted: ligand peptide (modified human orexin-A) 300 pM, maximum fluorescence intensity. How it is done: (§1) Chinese hamster ovary (CHO) cells forcibly expressing the hOX1R and hOX2R were seeded into a 96 well Black clear bottom plate (Nunc) at 20,000 cells per well, which were cultured in Ham's F-12 medium containing 0.1 mM MEM non-essential amino acids, 0.5 mg/ml G418, 10% fetal bovine serum (all by Invitrogen) for 16 hours under the conditions of 37° C., 5% CO2. After removing the medium, 100 μL of 0.5 μM Fluo-4AM ester (Dojin) in an assay buffer (25 mM HEPES (Dojin), Hank's balanced salt solution (Invitrogen), 0.1% bovine serum albumin, 2.5 mM probenecid, 200 μg/ml Amaranth (all by Sigma-Aldrich), pH 7.4) was added and the cells were incubated for 60 minutes at 37° C., 5% CO2. After removing the assay buffer containing fluo-3AM ester, the test compound was dissolved in dimethyl sulfoxide to be 10 mM and diluted with the assay buffer, 150 μL of which was added and incubated for 30 minutes.
(§2) The reaction was measured for the fluorescence intensity of each well every second for 3 minutes using Functional Drug Screening System (FDSS; Hamamatsu Photonics K.K.), and the antagonistic activity was determined using the maximum fluorescence intensity as the indicator of intracellular Ca2+ concentration.

The target in assay [2] is human orexin-2 receptor (hOX2R) (Homo sapiens (Human), UniProt O43614). Kind of assay: Measurement of orexin antagonistic activity (intracellular Ca2+ fluorescence, FDSS), hOX2R. The assay is classed as cell-based. The conditions noted are these: CHO cells forcibly expressing hOX2R; ligand peptide (modified human orexin-A) 3 nM; maximum fluorescence intensity; read-out: IC50 Value OX2. How it is done: as §1, with “The antagonistic activities of the test compounds on human orexin-1 receptor (hOX1R) and orexin-2 receptor (hOX2R) were measured by modifying from the method described in literature (Toshikatsu Okumura et al., Biochemical and Biophysical Research Communications 280, 976-981, 2001). Chinese” for “Chinese”
as §2

Setting [3] is: CHO cells forcibly expressing hOX1R, read-out: IC50 Value OX1.

Sequence of human orexin-1 receptor (hOX1R) (O43613 whole entry): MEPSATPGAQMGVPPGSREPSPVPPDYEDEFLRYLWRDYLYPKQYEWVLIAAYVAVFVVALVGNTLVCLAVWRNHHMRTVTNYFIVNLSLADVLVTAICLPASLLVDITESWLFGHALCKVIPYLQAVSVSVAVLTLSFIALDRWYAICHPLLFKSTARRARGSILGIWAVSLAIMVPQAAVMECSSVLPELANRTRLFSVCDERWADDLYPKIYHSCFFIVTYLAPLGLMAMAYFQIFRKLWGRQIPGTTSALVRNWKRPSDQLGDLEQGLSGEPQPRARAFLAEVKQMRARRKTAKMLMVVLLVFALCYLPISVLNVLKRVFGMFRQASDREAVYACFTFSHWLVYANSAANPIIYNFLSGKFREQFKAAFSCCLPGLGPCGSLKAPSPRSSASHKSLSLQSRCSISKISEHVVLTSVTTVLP
Sequence of human orexin-2 receptor (hOX2R) (O43614 whole entry): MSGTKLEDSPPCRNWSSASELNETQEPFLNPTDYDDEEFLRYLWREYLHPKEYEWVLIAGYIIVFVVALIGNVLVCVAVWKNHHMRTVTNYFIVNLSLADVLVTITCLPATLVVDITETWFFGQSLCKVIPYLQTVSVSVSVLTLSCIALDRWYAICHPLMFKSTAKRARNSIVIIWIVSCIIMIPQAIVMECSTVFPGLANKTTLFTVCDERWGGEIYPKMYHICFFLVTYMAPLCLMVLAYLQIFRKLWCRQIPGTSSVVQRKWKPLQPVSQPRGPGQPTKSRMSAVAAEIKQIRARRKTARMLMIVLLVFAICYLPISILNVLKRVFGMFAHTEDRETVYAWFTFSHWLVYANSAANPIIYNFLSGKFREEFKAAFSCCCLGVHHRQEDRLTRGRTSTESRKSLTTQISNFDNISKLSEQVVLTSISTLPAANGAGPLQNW

As to `O=C(c1ccccc1-n1nccn1)N1CCOC1Cn1ccc(-c2ccc(F)cn2)n1` (racemic) [Example 11, (±)-(2-{[3-(5-Fluoropyridin-2-yl)-1H-pyrazol-1-yl]methyl}-1,3-oxazolidin-3-yl)[2-(2H-1,2,3-triazol-2-yl)phenyl]methanone], the IC50 came to 17.5 nM in assay [1] (setting [3]) and 252 nM in assay [2].
Take `O=C(c1cc(F)ccc1-n1nccn1)N1CCOC1Cn1ccc(-c2ccc(F)cn2)n1` (racemic) [Example 12, (±)-(2-[[3-(5-fluoropyridin-2-yl)-1H-pyrazol-1-yl]methyl]-1,3-oxazolidin-3-yl) [5-fluoro-2-(2H-l,2,3-triazol-2-yl)phenyl]methanone]: the 50% inhibitory concentration (IC50) in assay [2] was 171 nM.
As to `Cc1ccc(-n2nccn2)c(C(=O)N2CCOC2Cn2ccc(-c3ccc(F)cn3)n2)n1` (racemic) [Example 13, (±)-(2-[[3-(5-fluoropyridin-2-yl)-1H-pyrazol-1-yl]methyl]-1,3-oxazolidin-3-yl) [6-methyl-3-(2H-l,2,3-triazol-2-yl)pyridin-2-yl] methanone], the IC50 was 121 nM in assay [1] (setting [3]) and 251 nM in assay [2].
On the same counts, the results for `O=C(c1cc(F)ccc1-c1ncccn1)N1CCOC1Cn1ccc(-c2ccc(F)cn2)n1` (racemic) [Example 16, (±)-(2-[[3-(5-fluoropyridin-2-yl)-1H-pyrazol-1-yl]methyl]-1,3-oxazolidin-3-yl) [5-fluoro-2-(pyrimidin-2-yl)phenyl]methanone] are 28.9 nM and 71.7 nM.
`Cc1ccc(-n2nccn2)c(C(=O)N2CCOC2Cn2ccc(-c3ccc(F)cc3)n2)c1` (racemic) [Example 17, (±)-(2-[[3-(4-fluorophenyl)-1H-pyrazol-1-yl]methyl]-1,3-oxazolidin-3-yl)[5-methyl-2-2H-1,2,3-triazol-2-yl) phenyl]methanone]: in assay [1] (setting [3]), the IC50 was 5.1 nM.
Consider `O=C(c1ccccc1-n1nccn1)N1CCOC1Cn1ccc(-c2ccc(F)cc2)n1` (racemic) [Example 18, (±)-(2-[[3-(4-fluorophenyl)-1H-pyrazol-1-yl]methyl]-1,3-oxazolidin-3-yl)[2-(2H-1,2,3-triazol-2-yl)phenyl] methanone], for which the IC50 was 26.4 nM in assay [1] (setting [3]) and 192 nM in assay [2].
With `O=C(c1cc(F)ccc1-n1nccn1)N1CCOC1Cn1ccc(-c2ccc(F)cc2)n1` (racemic) [Example 19, (±)-(2-[[3-(4-fluorophenyl)-1H-pyrazol-1-yl]methyl]-1,3-oxazolidin-3-yl)[5-fluoro-2-(2H-1,2,3-triazol-2-yl)phenyl]methanone], the values for the IC50 in assay [1] (setting [3]) and in assay [2] were 76.8 nM and 233 nM, respectively.
On the same counts, the results for `Cc1ccc(-c2ncccn2)c(C(=O)N2CCOC2Cn2ccc(-c3ccc(F)cc3)n2)c1` (racemic) [Example 20, (±)-(2-[[3-(4-fluorophenyl)-1H-pyrazol-1-yl]methyl]-1,3-oxazolidin-3-yl)[5-methyl-2-(pyrimidin-2-yl)phenyl]methanone] are 12.3 nM and 101 nM.
The corresponding values for `O=C(c1cc(F)ccc1-c1ncccn1)N1CCOC1Cn1ccc(-c2ccc(F)cc2)n1` (racemic) [Example 21] are 30.2 nM and 234 nM.
`Cc1ccc(-c2ncccn2)c(C(=O)N2CCOC2Cn2cc(-c3ccc(F)cc3)cn2)c1` (racemic) [Example 24, (±)-(2-[[4-(4-fluorophenyl)-1H-pyrazol-1-yl]methyl]-1,3-oxazolidin-3-yl)[5-methyl-2-(pyrimidin-2-yl)phenyl]methanone]: in assay [2], the IC50 turned out to be 26.7 nM.
On to `Cc1ccc(-n2nccn2)c(C(=O)N2CCOC2Cn2ccc(-c3ccc(F)cn3)n2)c1` (single isomer, unassigned; (-)) [Example 1, (−)-(2-{[3-(5-Fluoropyridin-2-yl)-1H-pyrazol-1-yl]methyl}-1,3-oxazolidin-3-yl)[5-methyl-2-(2H-1,2,3-triazol-2-yl)phenyl]methanone], for which the half-maximal inhibitory concentration (IC50) in assay [1] (setting [3]) is 4.9 nM.
Take `Cc1ccc(-n2nccn2)c(C(=O)N2CCCOC2Cn2cc(-c3ccc(F)cn3)cn2)c1` (single isomer, unassigned; (-)) [Example 4, (−)-(2-[[4-(5-fluoropyridin-2-yl)-1H-pyrazol-1-yl]-methyl]-1,3-oxazinan-3-yl)[5-methyl-2-(2H-1,2,3-triazol-2-yl)phenyl] methanone]: the IC50 in assay [1] (setting [3]) was 9.6 nM.
As for `Cc1ccc(-n2nccn2)c(C(=O)N2CCCOC2Cn2cc(-c3ccc(F)cc3)cn2)c1` (single isomer, unassigned; (-)) [Example 35, (−)-[2-[[4-(4-fluorophenyl)-1H-pyrazol-1-yl]methyl]-1,3-oxazinan-3-yl][5-methyl-2-(2H-1,2,3-triazol-2-yl)phenyl]methanone], it took 0.8 nM to reach half-maximal inhibition in assay [1] (IC50 Value OX1, CHO cells forcibly expressing hOX1R) (IC50).
As to `Cc1ccc(-n2nccn2)c(C(=O)N2CC(C)COC2Cn2cc(-c3ccc(F)cn3)cn2)c1` (single isomer, unassigned; (-)) [Example 40, (−)-[(2S*,5S*)-2-{[4-(5-Fluoropyridin-2-yl)-1H-pyrazol-1-yl]methyl}-5-methyl-1,3-oxazinan-3-yl][5-methyl-2-(2H-1,2,3-triazol-2-yl)phenyl]methanone], the IC50 in assay [1] (setting [3]) amounted to 8.3 nM.
Same read-out and setting: then `Cc1ccc(-c2ncccn2)c(C(=O)N2CCCOC2Cn2cc(-c3ccc(F)cc3)cn2)c1` (single isomer, unassigned; (-)) [Example 43, (−)-[2-[[4-(4-fluorophenyl)-1H-pyrazol-1-yl]methyl]-1,3-oxazinan-3-yl][5-methyl-2-(pyrimidin-2-yl)phenyl]methanone], with 2.6 nM.
On to `O=C(c1cc(F)ccc1-c1ncccn1)N1CCCOC1Cc1cnn(-c2ccc(F)cn2)c1` (single isomer, unassigned; (-)) [Example 44, (−)-[2-[[1-(5-fluoropyridin-2-yl)-1H-pyrazol-4-yl]methyl]-1,3-oxazinan-3-yl] [5-fluoro-2-(pyrimidin-2-yl)phenyl]methanone], for which the concentration for half-maximal inhibition (IC50) in assay [1] (setting [3]) stood at 60.4 nM.
On the same count and under the same terms, then `Cc1ccc(-n2nccn2)c(C(=O)N2CCCOC2Cc2cnn(-c3ccc(F)cn3)c2)c1` (single isomer, unassigned; (-)) [Example 47, (−)-[2-{[1-(5-Fluoropyridin-2-yl)-1H-pyrazol-4-yl]methyl}-1,3-oxazinan-3-yl][5-methyl-2-(2H-1,2,3-triazol-2-yl)phenyl]methanone], with 3.4 nM; and `Cc1ccc(-n2nccn2)c(C(=O)N2CC(C)COC2Cn2cc(-c3ccc(F)cn3)cn2)c1` (single isomer, unassigned; (-)) [Example 49, (−)-[(2S*,5R*)-2-{[4-(5-Fluoropyridin-2-yl)-1H-pyrazol-1-yl]methyl}-5-methyl-1,3-oxazinan-3-yl][5-methyl-2-(2H-1,2,3-triazol-2-yl)phenyl]methanone], with 0.8 nM.
Same read-out and setting: then `Cc1ccc(-n2nccn2)c(C(=O)N2C[C@H](C)O[C@H]2Cn2cc(-c3ccc(F)cn3)cn2)c1` [Example 5, (−)-[(2S,5S)-2-{[4-(5-Fluoropyridin-2-yl)-1H-pyrazol-1-yl]methyl}-5-methyl-1,3-oxazolidin-3-yl][5-methyl-2-(2H-1,2,3-triazol-2-yl)phenyl]methanone], with 86 nM.
Same read-out and setting: then `Cc1ccc(-n2nccn2)c(C(=O)N2C[C@@H](C)O[C@H]2Cn2cc(-c3ccc(F)cn3)cn2)c1` [Example 6, (−)-[(2S,5R)-2-[[4-(5-fluoropyridin-2-yl)-1H-pyrazol-1-yl]methyl]-5-methyl-1,3-oxazolidin-3-yl] [5-methyl-2-(2H-1,2,3-triazol-2-yl)phenyl] methanone], with 27.5 nM.
With `Cc1ccc(-n2nccn2)c(C(=O)N2[C@H](C)CO[C@H]2Cn2ccc(-c3ccc(F)cn3)n2)c1` [Example 7, [(2S,4R)-2-[[3-(5-fluoropyridin-2-yl)-1H-pyrazol-1-yl]-methyl]-4-methyl-1,3-oxazolidin-3-yl] [5-methyl-2-(2H-1,2,3-triazol-2-yl)phenyl] methanone], in assay [1] (setting [3]), the IC50 amounted to 7.2 nM.
Same read-out and setting: then `Cc1ccc(-n2nccn2)c(C(=O)N2[C@H](Cn3ccc(-c4ccc(F)cn4)n3)OC[C@@H]2C)c1` [Example 9, (−)-[(2S,4S)-2-[[3-(5-fluoropyridin-2-yl)-1H-pyrazol-1-yl]-methyl]-4-methyl-1,3-oxazolidin-3-yl] [5-methyl-2-(2H-1,2,3-triazol-2-yl)phenyl] methanone], with 23.4 nM.
